Like-named read-outs stand apart in the source and are kept apart here.
Key:
Vascular permeability [1] = experiment: Vascular permeability in mice (Whittle's method); type: in vivo, mouse (ddY strain, male); conditions: for Inhibition: dye leakage; for ED30: po, mouse, read-out: ED30
Procedure: (i) Vascular permeability in mice (Whittle's method)
The test compound was orally administered to each ddY strain male mouse (weighing each about 20 g). After 20 minutes, 0.1 ml/10 g of a 4%(Wt/V) solution of Pontamine Sky Blue in physiological saline was intravenously injected and 10 minutes thereafter 0.1 ml/10 g of a 0.7%(V/V) solution of acetic acid in physiological saline was injected intraperitoneally. After 30 minutes, the mice were killed by suffocation with chloroform. After immediate laparotomy, the dye leaked into the peritoneal cavity was washed out with distilled water. The washings were made up with water to 30 ml and the absorbance at 620 mμ was measured. The amount of leaked dye per 20 g of mouse weight was compared.

[2] = tested on: fever (Mycobacterium butyricum); experiment: Antipyretic action; type: in vivo, rat (Wistar strain, female); conditions: for ED1.0: po, rat, read-out: ED1.0
Procedure: A suspension (0.6 mg/0.1 ml) of killed and dried Mycobacterium butyricum in liquid paraffin was subcutaneously injected in an amount of 0.1 ml into the subplantar region of the hind paw of each Wistar strain female rat weighing about 180 g. After 14 hours, the fevered rats were divided into groups, and each test compound was orally administered to each group to examine the antipyretic effect.

[3] = tested on: Phenol Red (PSP) excretion; experiment: Uricosuric action (a), inhibition of Phenol Red (PSP) excretion; type: in vivo, rabbit (male)
Procedure: (a) The action was examined by the method of B. B. Brodie et al. who reported that the inhibitory action on Phenol Red (PSP) excretion correlates with the uricosuric action [Proc. Soc. Exp. Biol. Med., 86, 884 (1954)]. To a male rabbit weighing 2 to 3 kg was intraperitoneally administered the test compound. After 30 minutes, 75 mg/kg of a Phenol Red suspension was injected into the pinna vein of the rabbit and 30 minutes thereafter a blood sample was drawn from the pinna vein. The blood sample was centrifuged and the serum was diluted with physiological saline. The diluted serum was treated with 0.1 N NaOH to develop the color. The concentration of Phenol Red in the serum was determined from the absorbance at 560 mμ.

[4] = tested on: phenylbenzoquinone writhing; experiment: Analgesic activity, phenylbenzoquinone method in mouse; type: in vivo, mouse (ddY strain, male); conditions: for Frequency of writhing, mean ± S.E.: during 10 minutes; for inhibition in vivo at 5 mg/kg / inhibition in vivo at 10 mg/kg / inhibition in vivo at 20 mg/kg: Mus musculus, 10 min, writhing, read-out: Inhibition; for inhibition in vivo at 5 mg/kg / inhibition in vivo at 10 mg/kg / inhibition in vivo at 20 mg/kg / ED50: po; for ED50: mouse, read-out: ED50
Procedure: (i) Phenylbenzoquinone method in mouse
The test compound was orally administered to each ddY strain male mouse (weighing 22±2 g; 8 mice per group). […] The frequency of writhing during 10 minutes from 5-minutes after the injection of phenylbenzoquinone was measured and compared with that of a control group to which a 0.5% Tween 80 solution was administered. The percent inhibition was calculated by the following equation: [formula]

in vivo = conditions: rat, po
[5] = tested on: threshold value of pain due to pressure stimuli (tail); conditions: for Analgesic effect: 100% = threshold raised by 160 g; for ED50: Mus musculus, po
Vascular permeability [6] = experiment: Vascular permeability in rat (Whittle's method); type: in vivo, rat (Wistar strain, male); conditions: for ED30: po, rat, read-out: ED30
Procedure: (ii) Vascular permeability in rat (Whittle's method)
The test compound was orally administered to each Wistar strain male rat (weighing about 150 g) which had been fasted overnight. After 55 minutes, 0.5 ml of a 0.5% Evans Blue solution was intravenously injected. Five minutes thereafter, 0.2 ml/100 g of a 3%(V/V) acetic acid solution was intraperitoneally injected. After 60 minutes from the injection of the acetic acid solution, the rats were killed by suffocation with chloroform. After immediate laparotomy, the dye leaked into the peritoneal cavity was washed out with physiological saline. The washings were made up with the saline to 30 ml and the absorbance at 640 mμ was measured to examine the effect of the test compounds by comparing the amounts of leaked dye per rat with one another.

[7] = tested on: Carrageenin-induced edema; experiment: Carrageenin-induced edema; type: in vivo, rat (Donryu strain, male); conditions: Rattus norvegicus, po, mean in 5 hours, read-out: Inhibitory percent of swelling; for inhibition in vivo at 1 mg/kg: 1 mg/kg p.o.; for inhibition in vivo at 5 mg/kg: 5 mg/kg p.o.
Procedure: (iii) Carrageenin-induced edema
Each of the 6 Donryu strain male rats per group (each weighing about 140 g), which had been fasted overnight, was orally loaded with 4 ml of water and, after 30 minutes, the test compound was orally administered thereto. Thirty minutes thereafter, a 1%(Wt/V) solution of carrageenin in physiological saline was subcutaneously injected into the subplantar region of the left hind paw. At a time interval of one hour, starting from the end of the first hour till the end of the fifth hour after injection of carrageenin, the paw volume was measured by means of a manometer and pressure transducer. By comparison with the percent increase in swelling of the control group of rats to which a 0.5%(V/V) solution of Tween 80 had been administered, the mean inhibitory percent in 5 hours of swelling was calculated by the following equation: [formula]

Adjuvant arthritis = experiment: Adjuvant arthritis; type: in vivo, rat (Sprague-Dawley strain, male); conditions: 1 mg/kg p.o./day, mean during one week
Procedure: A suspension containing 6 mg/ml of killed and dried Mycobacterium butyricum in liquid paraffin was subcutaneously injected into the subplantar region of the left hind paw of Sprague-Dawley strain male rats (weighing 180 to 200 g) in a proportion of 0.1 ml/rat. After 14 days, the rats having inflammatory paws of similar volumes were selected and the test compound was orally administered to the rats repeatedly at the rate shown in Table 4 during one week and the mean inhibitory percent of swelling during one week was determined.

[8] = tested on: pain threshold (brewer's yeast, hind paw); experiment: Analgesic activity, Randall-Selitto method in rat; type: in vivo, rat (Wistar strain, male); conditions: for Inhibition: 100% = pain threshold raised by 150 g; for ED50: po, rat, read-out: ED50
Procedure: (ii) Randall-Selitto method in rat
After one hour, the test compound was orally administered. One hour thereafter, the pain threshold value was measured four times at a time interval of one hour. The mean value of four values obtained was taken as the pain threshold value of each group of rats. The activity of the drug was assumed to be 100% when the pain threshold value was raised by 150 g.

Glomerulonephritis = experiment: Action on glomerulonephritis in rats; type: in vivo, rat (Wistar strain, male); conditions: 10 mg/kg p.o./day
Excerpt: (ii) Action on glomerulonephritis in rats
Glomerulonephritis was induced in Wistar strain male rats (each weighing 180 to 200 g) by use of an anti-rat's kidney rabbit serum obtained from the serum of a rabbit sensitized with a homogenate of rat's kidney cortice. To the rat producing stable proteinuria was orally administered the test compound repeatedly at the rate shown in Table 12 for 2 weeks, and the inhibition of uric protein was examined.

Row | SMILES | Dye leakage (P.S.B.) mean ± S.E. (Vascular permeability [1]; 5 mg/kg p.o.) [μg/20g] | Dye leakage (P.S.B.) mean ± S.E. (Vascular permeability [1]; 10 mg/kg p.o.) [μg/20g] | Dye leakage (P.S.B.) mean ± S.E. (Vascular permeability [1]; 20 mg/kg p.o.) [μg/20g] | Inhibition (Vascular permeability [1]; 5 mg/kg p.o.) [%] | Inhibition (Vascular permeability [1]; 10 mg/kg p.o.) [%] | Inhibition (Vascular permeability [1]; 20 mg/kg p.o.) [%] | ED30 (Vascular permeability [1]) [mg/kg] | Mean decrease in temp. ([2]; 0.2 mg/kg p.o.) [°C] | Mean decrease in temp. ([2]; 1 mg/kg p.o.) [°C] | Mean decrease in temp. ([2]; 5 mg/kg p.o.) [°C] | ED1.0 [2] [mg/kg] | Concentration of PSP in serum, mean ± S.E. ([3]; 10 mg/kg i.p.) [µg/mL] | Concentration of PSP in serum, mean ± S.E. ([3]; 20 mg/kg i.p.) [µg/mL] | Frequency of writhing, mean ± S.E. ([4]; 5 mg/kg p.o.) | Frequency of writhing, mean ± S.E. ([4]; 10 mg/kg p.o.) | Frequency of writhing, mean ± S.E. ([4]; 20 mg/kg p.o.) | inhibition in vivo at 5 mg/kg ([4]; 5 mg/kg p.o.) [%] | inhibition in vivo at 10 mg/kg ([4]; 10 mg/kg p.o.) [%] | inhibition in vivo at 20 mg/kg ([4]; 20 mg/kg p.o.) [%] | ED50 [4] [mg/kg] | also measured
1 | Cc1ccsc1-c1ccc(C(C)C(=O)O)cc1 (racemic) [Racemic compound, dl-2-[4-(3-methyl-2-thienyl)phenyl]propionic acid] | 262.0 ± 21.1 | 211.0 ± 26.0 | 166.8 ± 13.8 | 18.3 | 34.2 | 48.0 | 8.5 | 0.52 | 1.20 | 1.70 | 0.66 | 166.7 ± 25.1 | 249.3 ± 41.4 | 18.6 ± 4.5 | 11.8 ± 2.4 | 3.3 ± 0.9 | 21.2 | 50 | 86 | 9.7 | LD50 (in vivo): 248 mg/kg; Analgesic effect ([5]; 2.5 mg/kg p.o.): 33%; Analgesic effect ([5]; 10 mg/kg p.o.): 50%; Analgesic effect ([5]; 40 mg/kg p.o.): 85%; ED50 [5]: 7 mg/kg; Inhibition (Vascular permeability [6]; 0.5 mg/kg p.o.): 20.1%; Inhibition (Vascular permeability [6]; 1 mg/kg p.o.): 27.6%; Inhibition (Vascular permeability [6]; 5 mg/kg p.o.): 50.1%; ED30 (Vascular permeability [6]): 1.1 mg/kg; inhibition in vivo at 1 mg/kg [7]: 21.2%; inhibition in vivo at 5 mg/kg [7]: 48.5%; Inhibitory percent of swelling (Adjuvant arthritis): 14.4%; Inhibition ([8]; 1 mg/kg p.o.): 44.3%; Inhibition ([8]; 5 mg/kg p.o.): 45.2%; Inhibition ([8]; 25 mg/kg p.o.): 66.9%; ED50 [8]: 6.1 mg/kg
2 | Cc1ccsc1-c1ccc(C(C)C(=O)O)cc1 (single isomer, unassigned; isomer d) [d-Isomer, d-2-[4-(3-methyl-2-thienyl)phenyl]propionic acid] | 256.4 ± 15.9 | 218.0 ± 14.3 | 160.4 ± 10.3 | 20.1 | 32.0 | 50.0 | 8.6 | 0.82 | 1.18 | 1.63 | 0.44 | 223.8 ± 3.9 | 267.3 ± 18.0 | 14.5 ± 3.5 | 9.9 ± 2.6 | 5.4 ± 1.0 | 38.6 | 58.1 | 77.1 | 7.5 | LD50 (in vivo): 230 mg/kg; Analgesic effect ([5]; 2.5 mg/kg p.o.): 38%; Analgesic effect ([5]; 10 mg/kg p.o.): 61%; Analgesic effect ([5]; 40 mg/kg p.o.): 80%; ED50 [5]: 5.2 mg/kg; Inhibition (Vascular permeability [6]; 0.2 mg/kg p.o.): 14.2%; Inhibition (Vascular permeability [6]; 0.5 mg/kg p.o.): 28.1%; Inhibition (Vascular permeability [6]; 1 mg/kg p.o.): 43.3%; ED30 (Vascular permeability [6]): 0.52 mg/kg; inhibition in vivo at 1 mg/kg [7]: 40%; inhibition in vivo at 5 mg/kg [7]: 57.2%; Inhibitory percent of swelling (Adjuvant arthritis): 21.6%; Inhibition ([8]; 1 mg/kg p.o.): 37.1%; Inhibition ([8]; 5 mg/kg p.o.): 48.5%; Inhibition ([8]; 25 mg/kg p.o.): 72.9%; ED50 [8]: 4.4 mg/kg
3 | CC(=O)OCC(=O)[C@@]1(O)CC[C@H]2[C@@H]3CCC4=CC(=O)CC[C@]4(C)[C@H]3[C@@H](O)C[C@@]21C [Hydrocortisone acetate] | – | – | – | – | – | – | – | – | – | – | – | – | – | – | – | – | – | – | – | – | Inhibition of uric protein (Glomerulonephritis; 7th day): 20.0%; Inhibition of uric protein (Glomerulonephritis; 14th day): 29.0%

Reference: patent publication US4230719A, “Novel 2-[4-(3-methyl-2-thienyl)phenyl]propionic acid and pharmaceutically acceptable salt thereof and method for treating symptoms of inflammation and pain” (Toyama Chemical Co., Ltd., priority 1977, dated 1980)
